Experimental data from US11040981B2, “Pyrrolotriazine compounds and methods of inhibiting TAM kinases” (Syros Pharmaceuticals, Inc., priority 2017, dated 2021).

Columns and labels:
[1] = molecular target: T1, FLT3 (Homo sapiens, UniProt P36888); assay: TR-FRET kinase activity assay, FLT3; format: biochemical; conditions: ATP at Km, 60 minutes
T1 sequence (P36888 27-993): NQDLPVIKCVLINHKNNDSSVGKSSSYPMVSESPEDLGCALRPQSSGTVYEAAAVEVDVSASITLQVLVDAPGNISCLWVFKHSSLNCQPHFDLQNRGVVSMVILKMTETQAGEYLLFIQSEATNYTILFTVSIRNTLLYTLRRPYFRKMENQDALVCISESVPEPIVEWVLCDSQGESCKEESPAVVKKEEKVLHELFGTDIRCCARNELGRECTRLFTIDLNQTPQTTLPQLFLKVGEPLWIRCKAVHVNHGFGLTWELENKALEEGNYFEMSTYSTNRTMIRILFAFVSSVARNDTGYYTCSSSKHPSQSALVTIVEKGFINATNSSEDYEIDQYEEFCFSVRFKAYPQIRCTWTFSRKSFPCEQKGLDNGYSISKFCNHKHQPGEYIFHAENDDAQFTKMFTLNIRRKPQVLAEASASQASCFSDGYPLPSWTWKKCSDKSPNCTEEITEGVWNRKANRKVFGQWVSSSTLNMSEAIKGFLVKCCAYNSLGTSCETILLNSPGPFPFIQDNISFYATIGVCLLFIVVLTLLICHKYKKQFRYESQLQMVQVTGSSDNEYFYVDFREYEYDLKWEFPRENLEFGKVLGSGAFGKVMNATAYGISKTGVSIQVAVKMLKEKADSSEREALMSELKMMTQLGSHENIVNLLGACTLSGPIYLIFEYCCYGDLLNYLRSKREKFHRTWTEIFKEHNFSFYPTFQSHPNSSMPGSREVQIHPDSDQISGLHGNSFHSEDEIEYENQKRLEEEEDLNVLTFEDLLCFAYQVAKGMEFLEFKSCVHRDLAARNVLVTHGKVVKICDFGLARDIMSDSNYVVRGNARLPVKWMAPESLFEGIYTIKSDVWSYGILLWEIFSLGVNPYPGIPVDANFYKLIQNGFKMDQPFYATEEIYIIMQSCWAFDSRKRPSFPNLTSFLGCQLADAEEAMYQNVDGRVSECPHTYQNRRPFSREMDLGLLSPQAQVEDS
Summary of the method: (§1)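 Enzyme + labelled peptide + cpd premixed; ATP at per-enzyme Km starts rxn. 60 min RT, HEPES pH 7.5/MgCl2/EGTA/Brij 35/DTT buffer. Stop 12.5 mM EDTA, Eu phospho-Ab 30 min dark, TR-FRET read → IC50.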

[2] = molecular target: T2, MERTK (Homo sapiens, UniProt Q12866); assay: TR-FRET kinase activity assay, MERTK; format: biochemical; conditions: for IC50: TR-FRET activity assay, ATP at Km, 60 minutes, read-out: Mer IC50
T2 sequence (Q12866 21-999): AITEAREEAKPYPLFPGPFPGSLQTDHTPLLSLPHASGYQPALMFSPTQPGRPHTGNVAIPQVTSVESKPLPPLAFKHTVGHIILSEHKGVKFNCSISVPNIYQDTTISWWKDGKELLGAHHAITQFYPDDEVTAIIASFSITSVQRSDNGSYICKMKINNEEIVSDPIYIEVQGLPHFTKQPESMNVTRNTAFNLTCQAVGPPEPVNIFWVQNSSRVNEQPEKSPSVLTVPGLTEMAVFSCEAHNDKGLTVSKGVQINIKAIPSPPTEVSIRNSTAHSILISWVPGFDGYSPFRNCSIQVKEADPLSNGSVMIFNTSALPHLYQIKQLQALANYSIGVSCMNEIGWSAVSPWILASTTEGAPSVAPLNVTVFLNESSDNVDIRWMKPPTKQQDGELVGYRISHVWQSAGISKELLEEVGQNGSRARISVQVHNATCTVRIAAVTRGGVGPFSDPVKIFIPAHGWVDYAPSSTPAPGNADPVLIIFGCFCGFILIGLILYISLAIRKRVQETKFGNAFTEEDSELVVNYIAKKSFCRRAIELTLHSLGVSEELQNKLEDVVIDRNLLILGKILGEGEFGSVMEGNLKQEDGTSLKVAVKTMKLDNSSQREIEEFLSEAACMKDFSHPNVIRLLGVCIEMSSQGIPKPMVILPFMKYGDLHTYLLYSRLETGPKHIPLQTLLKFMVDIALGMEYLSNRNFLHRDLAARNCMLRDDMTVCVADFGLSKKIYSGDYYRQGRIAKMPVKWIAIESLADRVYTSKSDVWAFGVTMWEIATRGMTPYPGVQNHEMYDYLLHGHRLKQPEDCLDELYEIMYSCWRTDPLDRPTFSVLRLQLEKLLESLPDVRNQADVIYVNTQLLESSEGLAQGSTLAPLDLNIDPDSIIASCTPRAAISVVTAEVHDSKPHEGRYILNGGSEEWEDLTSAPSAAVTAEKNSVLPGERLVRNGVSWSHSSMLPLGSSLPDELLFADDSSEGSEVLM
Summary of the method: as §1

[3] = ratio of Mer to FLT3: FLT3 IC50/Mer IC50
[4] = ratio calculated as FLT3 IC50/Mer IC50

IC50 [1] [nM] | IC50 [2] [nM] | FLT3/Mer ratio (FLT3 IC50/Mer IC50) [2, 3] | FLT3/Mer ratio (FLT3 IC50/Mer IC50) [2, 4] | SMILES
100 to 1000 | ≤ 100 | +++ (“+++” represents a ratio of >100) |  | CNc1cc(-c2cc([C@H]3CC[C@H](O)CC3)n3nc(N[C@@H](C)COC)ncc23)ccn1 [Compound 354]
≤ 100 | ≤ 100 | +++ (“+++” represents a ratio of >100) |  | CNC(=O)c1ncc(-c2cc([C@H]3CC[C@H](O)CC3)n3nc(N[C@@H](C)CC(F)(F)F)ncc23)cn1 [Compound 347]
≤ 100 | ≤ 100 | +++ (“+++” represents a ratio of >100) |  | COC[C@H](C)Nc1ncc2c(-c3cnn([C@@H]4CCC(C(=O)OC(C)(C)C)C4)c3)cc([C@H]3CC[C@H](O)CC3)n2n1 (stereo partly drawn) [Compound 364]
100 to 1000 | ≤ 100 |  | +++ (“+++” represents a ratio of >100) | COC[C@H](C)Nc1ncc2c(-c3ccnc(O[C@@H]4CCN(C)C4)c3)cc([C@H]3CC[C@H](O)CC3)n2n1 [Compound 402]
100 to 1000 | ≤ 100 |  | +++ (“+++” represents a ratio of >100) | COC[C@H](C)Nc1ncc2c(-c3ccnc(O[C@H]4CCN(C)C4)c3)cc([C@H]3CC[C@H](O)CC3)n2n1 [Compound 400]
≤ 100 | ≤ 100 | +++ (“+++” represents a ratio of >100) |  | COC[C@H](C)Nc1ncc2c(-c3cnn(CC4CCOCC4)c3)cc([C@H]3CC[C@H](O)CC3)n2n1 [Compound 392]
1000 to 10000 | ≤ 100 |  | +++ (“+++” represents a ratio of >100) | COC[C@H](C)Nc1ncc2c(-c3cnn(C4(C(=O)N5CCOCC5)CC4)c3)cc([C@H]3CC[C@H](O)CC3)n2n1 [Compound 414]
1000 to 10000 | ≤ 100 | +++ (“+++” represents a ratio of >100) |  | CNOc1cc(-c2cc([C@H]3CC[C@H](O)CC3)n3nc(N[C@@H](C)COC)ncc23)ccn1 [Compound 361]
1000 to 10000 | ≤ 100 | +++ (“+++” represents a ratio of >100) |  | COCC(C)Nc1ncc2c(C3CCN(c4ccnc(C)n4)C3)cc(C3CCC(O)CC3)n2n1 (stereo not drawn) [Compound 373]
100 to 1000 | ≤ 100 |  | +++ (“+++” represents a ratio of >100) | COC[C@H](C)Nc1ncc2c(-c3ccnc(O[C@@H]4CCCN(C)C4)c3)cc([C@H]3CC[C@H](O)CC3)n2n1 [Compound 404]
1000 to 10000 | ≤ 100 | +++ (“+++” represents a ratio of >100) |  | COC[C@H](C)Nc1ncc2c([C@H]3CCN(S(C)(=O)=O)C3)cc([C@H]3CC[C@H](O)CC3)n2n1 [Compound 376]
100 to 1000 | ≤ 100 | +++ (“+++” represents a ratio of >100) |  | COC[C@H](C)Nc1ncc2c(-c3ccnc(O[C@@H]4CCCNC4)c3)cc([C@H]3CC[C@H](O)CC3)n2n1 [Compound 390]
≤ 100 | ≤ 100 |  | +++ (“+++” represents a ratio of >100) | C[C@@H](COC(F)F)Nc1ncc2c(-c3ccnc(N4CCOCC4)c3)cc([C@H]3CC[C@H](O)CC3)n2n1 [Compound 405]
≤ 100 | ≤ 100 | +++ (“+++” represents a ratio of >100) |  | C[C@@H](CC(F)(F)F)Nc1ncc2c(-c3ccnc(N4CCOCC4)c3)cc([C@H]3CC[C@H](O)CC3)n2n1 [Compound 346]
1000 to 10000 | ≤ 100 | +++ (“+++” represents a ratio of >100) |  | COC[C@H](C)Nc1ncc2c([C@@H]3CCCN(c4ccnc(C)n4)C3)cc([C@H]3CC[C@H](O)CC3)n2n1 [Compound 378]
1000 to 10000 | ≤ 100 | +++ (“+++” represents a ratio of >100) |  | CC[C@H](C)Nc1ncc2c(-c3cncc(S(C)(=O)=O)c3)cc([C@H]3CC[C@H](O)CC3)n2n1 [Compound 119]
100 to 1000 | ≤ 100 |  | +++ (“+++” represents a ratio of >100) | CNC(=O)c1cc(-c2cc([C@H]3CC[C@H](O)CC3)n3nc(N[C@@H](C)COC(F)F)ncc23)ccn1 [Compound 411]
100 to 1000 | ≤ 100 |  | +++ (“+++” represents a ratio of >100) | COC[C@H](C)Nc1ncc2c(-c3ccnc(O[C@H]4CCCN(C)C4)c3)cc([C@H]3CC[C@H](O)CC3)n2n1 [Compound 403]
100 to 1000 | ≤ 100 |  | +++ (“+++” represents a ratio of >100) | COC[C@H](C)Nc1ncc2c(-c3ccnc(N[C@@H]4CCOC4)c3)cc([C@H]3CC[C@H](O)CC3)n2n1 [Compound 416]
100 to 1000 | ≤ 100 |  | +++ (“+++” represents a ratio of >100) | CNC(=O)c1ncc(-c2cc([C@H]3CC[C@H](O)CC3)n3nc(N[C@@H](C)COC(F)F)ncc23)cn1 [Compound 407]
100 to 1000 | ≤ 100 | +++ (“+++” represents a ratio of >100) |  | COC[C@H](C)Nc1ncc2c(-c3cnn(C[C@@H]4CCC(=O)N4)c3)cc([C@H]3CC[C@H](O)CC3)n2n1 [Compound 368]
1000 to 10000 | ≤ 100 | +++ (“+++” represents a ratio of >100) |  | COC[C@H](C)Nc1ncc2c(-c3cnn(C(C)(C)C(=O)N4C[C@@H](C)O[C@H](C)C4)c3)cc([C@H]3CC[C@H](O)CC3)n2n1 [Compound 367]

SMILES | IC50 [1] [nM] | IC50 [2] [nM] | FLT3/Mer ratio (FLT3 IC50/Mer IC50) [2, 3] | FLT3/Mer ratio (FLT3 IC50/Mer IC50) [2, 4]
COC[C@H](C)Nc1ncc2c(-c3cnn(C4COC4)c3)cc(C3CCC(=O)CC3)n2n1 [Compound 406] | 100 to 1000 | ≤ 100 |  | +++ (“+++” represents a ratio of >100)
CCCCC[C@H](C)Nc1ncc2c([C@H]3CC[C@@H](C(=O)O)CC3)cc([C@H]3CC[C@H](O)CC3)n2n1 [Compound 125, (cis)-4-(2-((S)-heptan-2-ylamino)-7-((trans)-4-hydroxycyclohexyl)pyrrolo[2,1-f][1,2,4]triazin-5-yl)cyclohexanecarboxylic acid] | 1000 to 10000 | ≤ 100 | ++ (“++” represents a ratio of between 10 and 100) | 
CN1CCN(Cc2ccc(-c3cc(C4CCC(O)CC4)n4nc(NC5CCC5(C)C)ncc34)cc2)CC1 (mixture of isomers) [Compound 121] | 100 to 1000 | ≤ 100 | ++ (“++” represents a ratio of between 10 and 100) | 
C[C@@H](CN(C)C)Nc1ncc2c(-c3cnn(C4COC4)c3)cc([C@H]3CC[C@H](O)CC3)n2n1 [Compound 387] | 1000 to 10000 | 100 to 1000 | ++ (“++” represents a ratio of between 10 and 100) | 
